Read-outs that look alike come from different tables or passages of the source.
What was measured:
D1 = D1 (Homo sapiens, UniProt P21728); assay: Safety panel screening, D1 cAMP assay; type: cell-based; conditions: for inhibition at 10 µM: antagonist mode, read-out: Antagonist Mode Mean percentage inhibition (%) at 10 μM, D1
IFNB = assay: THP1-Dual cells transfected with DNA, Ifnb expression (Quantiluc); type: cell-based; conditions: Homo sapiens; for inhibition at 10 µM: THP-1, 10 μM; for inhibition at 30 µM: THP-1, 30 μM
How it was run: (§1)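 THP1-Dual cells were treated with compounds at various dilutions for 4 h, then transfected with DNA (2 ug/ml) using lipofectamine and incubated overnight. Supernatant Ifnb reporter was read with Quantiluc and nfkb reporter with Quantiblue; viability was measured by CellTiter-Glo.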

SET = SET (Homo sapiens, UniProt P31645); assay: Safety panel screening, serotonin transporter neurotransmitter uptake; type: cell-based; conditions: read-out: Mean percentage inhibition (%) at 10 μM, SET
SET, sequence (P31645 whole entry): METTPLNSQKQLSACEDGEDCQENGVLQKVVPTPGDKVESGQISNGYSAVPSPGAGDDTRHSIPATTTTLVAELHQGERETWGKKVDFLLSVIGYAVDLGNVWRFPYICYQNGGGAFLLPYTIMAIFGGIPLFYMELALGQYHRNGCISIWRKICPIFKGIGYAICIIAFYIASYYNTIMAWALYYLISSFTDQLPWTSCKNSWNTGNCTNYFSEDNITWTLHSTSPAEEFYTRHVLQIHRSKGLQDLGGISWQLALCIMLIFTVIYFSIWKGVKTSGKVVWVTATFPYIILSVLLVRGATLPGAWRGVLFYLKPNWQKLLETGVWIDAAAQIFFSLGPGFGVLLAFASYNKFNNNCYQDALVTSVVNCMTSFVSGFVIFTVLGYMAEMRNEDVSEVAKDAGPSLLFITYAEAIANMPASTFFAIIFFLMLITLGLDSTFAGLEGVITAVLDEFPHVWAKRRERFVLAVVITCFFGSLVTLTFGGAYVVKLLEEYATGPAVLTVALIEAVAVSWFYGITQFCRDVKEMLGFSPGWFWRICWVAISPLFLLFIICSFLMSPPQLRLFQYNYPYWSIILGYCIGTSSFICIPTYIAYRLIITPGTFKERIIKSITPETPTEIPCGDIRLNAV

hERG = hERG (Homo sapiens, UniProt Q12809); assay: Safety panel screening, hERG automated patch clamp; type: cell-based; conditions: read-out: Mean percentage inhibition (%) at 10 μM, hERG
hERG, sequence (Q12809 whole entry): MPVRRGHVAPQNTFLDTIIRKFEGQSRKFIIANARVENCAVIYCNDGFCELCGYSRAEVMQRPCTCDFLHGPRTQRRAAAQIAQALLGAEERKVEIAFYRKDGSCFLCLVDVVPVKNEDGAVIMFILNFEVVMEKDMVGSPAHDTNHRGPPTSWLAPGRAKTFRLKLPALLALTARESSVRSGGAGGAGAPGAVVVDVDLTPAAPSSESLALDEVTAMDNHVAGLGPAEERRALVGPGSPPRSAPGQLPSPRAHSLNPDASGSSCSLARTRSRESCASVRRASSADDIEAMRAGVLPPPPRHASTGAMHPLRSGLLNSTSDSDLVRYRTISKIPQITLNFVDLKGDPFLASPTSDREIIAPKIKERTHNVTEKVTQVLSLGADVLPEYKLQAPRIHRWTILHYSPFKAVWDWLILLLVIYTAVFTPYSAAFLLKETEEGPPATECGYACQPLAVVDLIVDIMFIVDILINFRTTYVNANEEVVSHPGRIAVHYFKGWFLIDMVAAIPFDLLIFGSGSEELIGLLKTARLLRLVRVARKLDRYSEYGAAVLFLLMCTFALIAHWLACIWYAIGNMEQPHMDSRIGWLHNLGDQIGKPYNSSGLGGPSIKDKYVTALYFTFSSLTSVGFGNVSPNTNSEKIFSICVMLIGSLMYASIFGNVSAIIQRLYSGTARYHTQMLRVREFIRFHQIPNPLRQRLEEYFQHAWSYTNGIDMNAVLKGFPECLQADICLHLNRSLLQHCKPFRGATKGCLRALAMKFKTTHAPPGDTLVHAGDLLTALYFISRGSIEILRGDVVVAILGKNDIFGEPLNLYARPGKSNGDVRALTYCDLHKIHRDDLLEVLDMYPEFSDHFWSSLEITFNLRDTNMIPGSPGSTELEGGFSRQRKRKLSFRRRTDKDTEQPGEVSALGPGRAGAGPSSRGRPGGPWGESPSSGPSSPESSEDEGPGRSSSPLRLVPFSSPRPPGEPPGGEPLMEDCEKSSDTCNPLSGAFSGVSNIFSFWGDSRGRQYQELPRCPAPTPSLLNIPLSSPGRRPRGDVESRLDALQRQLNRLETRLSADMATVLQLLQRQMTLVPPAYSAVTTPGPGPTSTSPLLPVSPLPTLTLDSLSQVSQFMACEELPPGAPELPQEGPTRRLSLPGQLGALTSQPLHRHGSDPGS

THP1 cells = assay: THP1-Dual cells, cell viability (CellTiter-Glo); type: cell-based
How it was run: as §1

[1] = Pharmacokinetic study, plasma and brain PK parameters after I.P. dosing; type: in vivo, mouse; conditions: 25 mg/Kg I.P.; for Kp / AUC(0-inf) / AUC(0-t) / MRT inf / half-life / Tmax / Cmax: mouse, ip; for Kp: brain/plasma, 25 mg/kg
Procedure: To test pharmacokinetics, TDI-6570 ([…] solution in water containing 0.2% Tween 80) was administered to 8-weeks old CD-1 male mice (n=3 for each time point) intraperitoneally (IP) and both plasma (EDTA-K2) and brain tissues were collected at various time points (0.5, 2, 4, 8 and 24 hours post drug administration). Transcardial perfusion were performed with saline prior to brain collection. Bioanalysis of brain tissue and plasma extracts were performed by LC-MS/MS.

m-cGAS = m-cGAS (Mus musculus, UniProt Q8C6L5); assay: Cell-free mouse cGAS enzyme inhibition assay (ATP depletion, Kinase-Glo Max); type: biochemical; conditions: 1 h; for inhibition at 1 µM: read-out: m-cGAS, conc. 1 μM; for inhibition at 10 µM: read-out: m-cGAS, conc. 10 μM
m-cGAS, sequence (Q8C6L5 whole entry): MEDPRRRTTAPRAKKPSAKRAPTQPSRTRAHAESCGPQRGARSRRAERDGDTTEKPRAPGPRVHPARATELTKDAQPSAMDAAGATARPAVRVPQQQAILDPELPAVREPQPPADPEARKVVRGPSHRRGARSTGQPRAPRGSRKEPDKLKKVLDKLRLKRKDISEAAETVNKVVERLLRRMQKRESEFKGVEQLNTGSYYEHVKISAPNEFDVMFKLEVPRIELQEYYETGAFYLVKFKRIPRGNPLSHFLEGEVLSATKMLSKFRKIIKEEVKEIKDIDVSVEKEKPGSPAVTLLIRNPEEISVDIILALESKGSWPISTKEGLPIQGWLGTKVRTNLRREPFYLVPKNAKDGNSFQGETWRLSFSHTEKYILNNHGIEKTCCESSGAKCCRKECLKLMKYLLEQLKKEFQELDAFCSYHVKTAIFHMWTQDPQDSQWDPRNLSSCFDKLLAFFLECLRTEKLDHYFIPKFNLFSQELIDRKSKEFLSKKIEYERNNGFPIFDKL

5HT2B = 5HT2B (Homo sapiens, UniProt P41595); assay: Safety panel screening, 5HT2B Ca2+ mobilization; type: cell-based; conditions: for inhibition at 10 µM: antagonist mode, read-out: Antagonist Mode Mean percentage inhibition (%) at 10 μM, 5HT2B
5HT2B, sequence (P41595 whole entry, species assumed): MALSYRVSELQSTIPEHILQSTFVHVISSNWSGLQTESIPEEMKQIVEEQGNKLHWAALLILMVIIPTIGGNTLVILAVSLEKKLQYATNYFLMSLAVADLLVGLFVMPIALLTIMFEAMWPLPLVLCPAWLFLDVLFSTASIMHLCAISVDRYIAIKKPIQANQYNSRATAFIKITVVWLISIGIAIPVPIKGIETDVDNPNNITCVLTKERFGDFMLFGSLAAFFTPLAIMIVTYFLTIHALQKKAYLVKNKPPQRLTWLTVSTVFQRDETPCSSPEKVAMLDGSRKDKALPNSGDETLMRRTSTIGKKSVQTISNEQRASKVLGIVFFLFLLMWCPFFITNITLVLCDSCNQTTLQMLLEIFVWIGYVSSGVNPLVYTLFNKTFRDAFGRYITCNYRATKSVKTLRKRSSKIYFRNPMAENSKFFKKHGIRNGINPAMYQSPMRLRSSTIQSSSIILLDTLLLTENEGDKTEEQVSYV

PDE4D2 = PDE4D2 (Homo sapiens, UniProt Q08499); assay: Safety panel screening, PDE4D2 IMAP; type: biochemical; conditions: read-out: Mean percentage inhibition (%) at 10 μM, PDE4D2
PDE4D2, sequence (Q08499 303-809): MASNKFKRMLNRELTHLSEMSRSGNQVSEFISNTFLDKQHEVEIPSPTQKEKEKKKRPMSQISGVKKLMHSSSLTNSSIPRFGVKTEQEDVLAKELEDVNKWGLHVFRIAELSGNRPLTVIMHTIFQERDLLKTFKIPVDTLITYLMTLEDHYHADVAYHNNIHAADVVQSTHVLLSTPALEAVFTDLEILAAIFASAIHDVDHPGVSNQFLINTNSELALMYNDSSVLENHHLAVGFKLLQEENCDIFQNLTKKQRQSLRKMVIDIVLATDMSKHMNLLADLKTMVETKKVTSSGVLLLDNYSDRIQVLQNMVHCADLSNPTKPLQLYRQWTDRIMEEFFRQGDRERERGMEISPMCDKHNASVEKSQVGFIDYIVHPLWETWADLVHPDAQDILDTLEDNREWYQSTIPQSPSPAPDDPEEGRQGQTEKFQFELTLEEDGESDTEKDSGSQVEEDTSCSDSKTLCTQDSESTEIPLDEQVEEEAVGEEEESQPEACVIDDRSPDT

h-cGAS = h-cGAS (Homo sapiens, UniProt Q8N884); assay: Cell-free human cGAS enzyme inhibition assay (ATP depletion, Kinase-Glo Max); type: biochemical; conditions: 3 h; for inhibition at 10 µM: read-out: h-cGAS, conc. 10 μM; for inhibition at 1 µM: read-out: h-cGAS, conc. 1 μM
h-cGAS, sequence (Q8N884 whole entry): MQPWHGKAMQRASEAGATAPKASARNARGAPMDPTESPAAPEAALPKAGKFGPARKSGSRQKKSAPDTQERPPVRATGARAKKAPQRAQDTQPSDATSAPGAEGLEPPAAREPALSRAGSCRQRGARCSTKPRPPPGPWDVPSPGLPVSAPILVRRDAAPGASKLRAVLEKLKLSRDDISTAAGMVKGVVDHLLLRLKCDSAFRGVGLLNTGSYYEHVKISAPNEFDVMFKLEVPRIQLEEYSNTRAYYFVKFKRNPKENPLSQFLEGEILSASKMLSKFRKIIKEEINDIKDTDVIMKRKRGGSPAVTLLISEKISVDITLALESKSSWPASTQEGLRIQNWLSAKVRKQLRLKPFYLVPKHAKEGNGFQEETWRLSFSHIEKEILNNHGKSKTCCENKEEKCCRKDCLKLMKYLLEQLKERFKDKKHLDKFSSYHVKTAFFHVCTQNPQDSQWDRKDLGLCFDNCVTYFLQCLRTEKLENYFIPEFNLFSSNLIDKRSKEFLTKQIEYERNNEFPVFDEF

[2] = Protein binding in mouse brain homogenates; type: in vitro ADME; conditions: for recovery at 6 h / fraction unbound at 6 hr: brain homogenate; for fraction unbound at 6 hr: read-out: % BoundBrain (converted)
NFkB-SEAP = assay: THP1-Dual cells transfected with DNA, nfkb expression (Quantiblue); type: cell-based; conditions: Homo sapiens; for inhibition at 10 µM: THP-1, 10 μM; for inhibition at 30 µM: THP-1, 30 μM
How it was run: as §1

[3] = Metabolic stability in mouse liver microsomes; conditions: for Remaining (NCF = 60 min) / Remaining (T = 60 min): mouse liver microsomes; for Remaining (NCF = 60 min): no co-factor (no NADPH); for Remaining (T = 60 min): 60 min with NADPH; for CLint scaled / half-life / microsomal CLint: mouse, liver microsomes
[4] = Metabolic stability in human liver microsomes
[5] = read-out: AUClast Ratio (brain/plasma)
[6] = read-out: Cmax Ratio (brain/plasma)
[7] = brain, read-out: AUCInf (Brain)
[8] = brain, read-out: AUClast (Brain)
[9] = brain, read-out: MRTInf_obs (Brain)
[10] = brain, read-out: T1/2 (Brain) (converted)
[11] = plasma, read-out: AUCInf (plasma)
[12] = plasma, read-out: AUClast (plasma)
[13] = plasma, read-out: MRTInf_obs (plasma)
[14] = plasma, read-out: T1/2 (plasma) (converted)
[15] = plasma, read-out: Tmax (plasma)

D1, sequence (P21728 whole entry): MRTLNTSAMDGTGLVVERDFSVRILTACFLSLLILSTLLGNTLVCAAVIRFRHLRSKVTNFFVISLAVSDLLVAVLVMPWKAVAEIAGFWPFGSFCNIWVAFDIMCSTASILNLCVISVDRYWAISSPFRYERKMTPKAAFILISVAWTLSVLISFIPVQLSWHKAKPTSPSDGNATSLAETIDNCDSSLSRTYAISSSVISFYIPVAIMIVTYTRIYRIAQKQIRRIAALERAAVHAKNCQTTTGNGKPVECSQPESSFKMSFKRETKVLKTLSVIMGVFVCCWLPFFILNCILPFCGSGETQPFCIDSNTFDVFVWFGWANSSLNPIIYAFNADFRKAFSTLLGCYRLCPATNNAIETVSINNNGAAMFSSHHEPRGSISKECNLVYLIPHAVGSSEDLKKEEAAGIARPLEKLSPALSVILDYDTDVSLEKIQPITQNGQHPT

O=C(CO)N1CCc2c(sc3c(Cl)c(Cl)cc(-c4cn[nH]c4)c23)C1 [Compound 63]
Agonist Mode Mean percentage activation (%) at 10 μM, D1 (D1): 6.19%
inhibition at 10 µM (D1): 3.08%
inhibition at 10 µM (IFNB): 50 to 74%
inhibition at 30 µM (IFNB): 75 to 100%
inhibition at 10 µM (SET): 15.2%
inhibition at 10 µM (hERG): 49.7%
Cell viability 10 μM (THP1 cells): +++ (+, ++, and +++ mean the compound respectively shows 25-49%; 50-74%; or 75-100% viability to cells)
Cell viability 30 μM (THP1 cells): +++ (+, ++, and +++ mean the compound respectively shows 25-49%; 50-74%; or 75-100% viability to cells)
AUC_%Extrap_obs (Brain) ([1]; brain): 1.62%
AUClast/D (Brain) ([1]; brain): 1354 mg·h/mL
Cmax (Brain) ([1]; brain): 3721 ng/mL
Kp [1, 5]: 0.989
Kp [1, 6]: 0.734
AUC(0-inf) [1, 7]: 34400 ng·h/mL
AUC(0-t) [1, 8]: 33900 ng·h/mL
MRT inf [1, 9]: 6.51 h
half-life [1, 10]: 3.86 h
Tmax ([1]; brain, read-out: Tmax (Brain)): 4 h
Cmax ([1]; plasma): 5070 ng/mL
AUC(0-inf) [1, 11]: 34300 ng·h/mL
AUC(0-t) [1, 12]: 34200 ng·h/mL
MRT inf [1, 13]: 4.76 h
half-life [1, 14]: 4.79 h
Tmax [1, 15]: 2 h
AUC_%Extrap_obs (plasma) ([1]; plasma): 0.0536%
AUClast/D (plasma) ([1]; plasma): 1370 mg·h/mL
inhibition at 1 µM (m-cGAS): 25 to 49%
inhibition at 10 µM (m-cGAS): 50 to 74%
Agonist Mode Mean percentage activation (%) at 10 μM, 5HT2B (5HT2B): 22.36%
inhibition at 10 µM (5HT2B): 49.4%
inhibition at 10 µM (PDE4D2): 73.2%
inhibition at 10 µM (h-cGAS): 25 to 49%
LogK [2]: >4.72
% Remaining at 6 hr [2]: 108.27%
recovery at 6 h [2]: < 88.4%
fraction unbound at 6 hr [2]: < 2e-05
inhibition at 10 µM (NFkB-SEAP): 25 to 49%
inhibition at 30 µM (NFkB-SEAP): 75 to 100%

Cn1cc(-c2cc(Cl)c(Cl)c3sc4c(c23)CN(C(=O)CN)CC4)cn1 [Compound 54]
inhibition at 10 µM (IFNB): 75 to 100%
inhibition at 30 µM (IFNB): 75 to 100%
Remaining (NCF = 60 min) [3]: 94.5%
Remaining (T = 60 min) [3]: 82.0%
CLint scaled [3]: < 38 mL/min/kg
half-life [3]: > 2.42 h
microsomal CLint [3]: < 9.6 µL/min/mg
Cell viability 10 μM (THP1 cells): ++ (+, ++, and +++ mean the compound respectively shows 25-49%; 50-74%; or 75-100% viability to cells)
Cell viability 30 μM (THP1 cells): − (Cell viability <24%, in THP1 cells is expressed as “−”)
Remaining (NCF = 60 min) ([4]; human liver microsomes, 60 min, no co-factor (no NADPH)): 129.8%
Remaining (T = 60 min) ([4]; human liver microsomes, 60 min with NADPH): 85.4%
CLint scaled ([4]; human, liver microsomes): < 8.6 mL/min/kg
half-life ([4]; human, liver microsomes): > 2.42 h
microsomal CLint ([4]; human, liver microsomes): < 9.6 µL/min/mg
inhibition at 1 µM (m-cGAS): 0 to 24%
inhibition at 10 µM (m-cGAS): 50 to 74%
inhibition at 1 µM (h-cGAS): 50 to 74%
inhibition at 10 µM (h-cGAS): 75 to 100%
inhibition at 10 µM (NFkB-SEAP): 75 to 100%
inhibition at 30 µM (NFkB-SEAP): 75 to 100%

Cn1cc(-c2cc(Cl)c(Cl)c3sc4c(c23)CN(C(=O)CO)CC4)cn1 [Compound 48]
Agonist Mode Mean percentage activation (%) at 10 μM, D1 (D1): 4.36%
inhibition at 10 µM (D1): 6.62%
inhibition at 10 µM (IFNB): 25 to 49%
inhibition at 30 µM (IFNB): 50 to 74%
inhibition at 10 µM (SET): 46.2%
Remaining (NCF = 60 min) [3]: 94.7%
Remaining (T = 60 min) [3]: 88.1%
CLint scaled [3]: 87.2 mL/min/kg
half-life [3]: 0.0333 h
microsomal CLint [3]: 679 µL/min/mg
inhibition at 10 µM (hERG): 63%
Cell viability 10 μM (THP1 cells): +++ (+, ++, and +++ mean the compound respectively shows 25-49%; 50-74%; or 75-100% viability to cells)
Cell viability 30 μM (THP1 cells): +++ (+, ++, and +++ mean the compound respectively shows 25-49%; 50-74%; or 75-100% viability to cells)
AUC_%Extrap_obs (Brain) ([1]; brain): 0.813%
AUClast/D (Brain) ([1]; brain): 5081 mg·h/mL
Cmax (Brain) ([1]; brain): 19853 ng/mL
Kp [1, 5]: 3.79
Kp [1, 6]: 3.14
AUC(0-inf) [1, 7]: 128000 ng·h/mL
AUC(0-t) [1, 8]: 127000 ng·h/mL
MRT inf [1, 9]: 4.69 h
half-life [1, 10]: 3.45 h
Tmax ([1]; brain, read-out: Tmax (Brain)): 2 h
Cmax ([1]; plasma): 6320 ng/mL
AUC(0-inf) [1, 11]: 33500 ng·h/mL
AUC(0-t) [1, 12]: 33500 ng·h/mL
MRT inf [1, 13]: 4.95 h
half-life [1, 14]: 4.53 h
Tmax [1, 15]: 1 h
AUC_%Extrap_obs (plasma) ([1]; plasma): 0.0394%
AUClast/D (plasma) ([1]; plasma): 1339 mg·h/mL
inhibition at 10 µM (m-cGAS): 0 to 24%
Agonist Mode Mean percentage activation (%) at 10 μM, 5HT2B (5HT2B): −0.48%
inhibition at 10 µM (5HT2B): 34.5%
inhibition at 10 µM (PDE4D2): 56.4%
inhibition at 1 µM (h-cGAS): 0 to 24%
inhibition at 10 µM (h-cGAS): 50 to 74%
LogK [2]: >4.17
% Remaining at 6 hr [2]: 92.46%
recovery at 6 h [2]: < 91.1%
fraction unbound at 6 hr [2]: < 0.0001
inhibition at 10 µM (NFkB-SEAP): < 24%
inhibition at 30 µM (NFkB-SEAP): 50 to 74%

CCCc1nc2c(C)cc(-c3nc4ccccc4n3C)cc2n1Cc1ccc(-c2ccccc2C(=O)O)cc1 [Telmisartan, reference compound]
LogK [2]: 1.72
% Remaining at 6 hr [2]: 103.38%
recovery at 6 h [2]: 99.3%
fraction unbound at 6 hr [2]: 0.0188
